Several values for one entry are separate records, joined by “and”; a condition that tells them apart may be missing. Equal entries are not always repeated.
What follows are molecules tested against T1, Histidine--tRNA ligase (Leishmania infantum, UniProt A4I591) (assay: Leishmania infantum Histidine tRNA synthetase (LdHisRS)).
T1 sequence (A4I591 whole entry): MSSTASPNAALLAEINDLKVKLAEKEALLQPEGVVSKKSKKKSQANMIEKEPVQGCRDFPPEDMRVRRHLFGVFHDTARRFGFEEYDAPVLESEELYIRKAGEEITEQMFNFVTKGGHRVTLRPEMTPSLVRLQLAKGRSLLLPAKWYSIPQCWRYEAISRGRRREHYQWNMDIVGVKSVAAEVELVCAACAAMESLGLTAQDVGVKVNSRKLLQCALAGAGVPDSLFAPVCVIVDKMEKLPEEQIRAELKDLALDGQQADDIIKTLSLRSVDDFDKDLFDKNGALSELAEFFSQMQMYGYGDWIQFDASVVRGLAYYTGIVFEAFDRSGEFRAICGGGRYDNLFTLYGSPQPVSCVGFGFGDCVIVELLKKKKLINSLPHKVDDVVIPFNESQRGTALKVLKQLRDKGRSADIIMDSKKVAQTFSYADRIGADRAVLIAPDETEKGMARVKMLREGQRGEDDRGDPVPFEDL
Assay type: functional
`Cc1ccc(-c2nnc(CN3CCc4nn(C)c(=O)cc4C3)o2)cc1` was tested, and the IC50 was 10.5 µM and 12.1 µM.
With `Cc1ccc(-c2nc(CN3CCc4nn(C)c(=O)cc4C3)no2)cc1` the IC50 was 72.7 µM and 85.3 µM.
For `COCc1nc2cc(NCc3ccc(CO)o3)ccc2o1`, the IC50 was 86.1 µM and > 100 µM.
In the case of `CCCN(C(=O)c1cnccn1)c1nc2c(s1)CCc1c-2cnn1C`, the IC50 is reported as 60.2 µM and 72.5 µM.
For `Cn1nc2c(cc1=O)CN(Cc1nnc(-c3ccco3)o1)CC2`, the IC50 was 44 µM and 59.9 µM.
For `Cn1nc2c(cc1=O)CN(Cc1nnc(-c3ccc(F)cc3)o1)CC2`, the IC50 was 83.1 µM and 70.4 µM.
Molecule `COCCN(C(=O)c1cnccn1)c1nc2c(s1)CCc1c-2cnn1C` has an IC50 of over 100 µM.
In the case of `CN(C(=O)c1ccccn1)c1nc2c(s1)CCc1c-2cnn1C`, the IC50 is reported as 30.7 µM and 23.3 µM.
In the case of `COCc1nc2cc(NCc3cc[nH]n3)ccc2o1`, the IC50 is reported as over 100 µM.
In the case of `COCc1nc2cc(NCc3scnc3C)ccc2o1`, the IC50 is reported as 77.5 µM and 90.5 µM.
`Cn1nc2c(cc1=O)CN(Cc1coc(-c3ccc(F)cc3)n1)CC2` was tested, and the IC50 was 16.5 µM and 18.8 µM.

The molecules below were run against Tryptophan--tRNA ligase (Mycobacterium tuberculosis (strain ATCC 25618 / H37Rv), UniProt P9WFT3) (assay: Biochemical assay for Mt-TrpRS).
Chain of Tryptophan--tRNA ligase (P9WFT3 whole entry): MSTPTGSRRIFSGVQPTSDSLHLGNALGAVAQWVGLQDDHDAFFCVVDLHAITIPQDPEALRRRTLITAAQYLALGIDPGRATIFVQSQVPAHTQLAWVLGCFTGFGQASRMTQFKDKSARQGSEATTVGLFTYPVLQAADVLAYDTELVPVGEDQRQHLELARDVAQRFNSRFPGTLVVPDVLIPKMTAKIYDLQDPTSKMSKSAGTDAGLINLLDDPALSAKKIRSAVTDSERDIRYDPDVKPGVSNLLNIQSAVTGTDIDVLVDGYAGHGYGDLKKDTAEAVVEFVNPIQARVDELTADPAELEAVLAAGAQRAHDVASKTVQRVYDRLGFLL
Assay type: functional
With `NC(=O)c1ccc(CNC(=O)Nc2cn[nH]c2)cc1` the IC50 was over 195 µM.
Molecule `CC(C)N1CCC(Cc2cncc(-c3cccc(C(=O)O)c3)n2)C1` (configuration not stated) has an IC50 of over 195 µM.

These molecules were tested against T2, Ubiquitin-activating enzyme e1, putative (Leishmania donovani (strain BPK282A1), UniProt E9BSI1) (assay: Leishmania donovani Ubiquitin Activating Enzyme (LdE1)).
T2 sequence (E9BSI1 whole entry): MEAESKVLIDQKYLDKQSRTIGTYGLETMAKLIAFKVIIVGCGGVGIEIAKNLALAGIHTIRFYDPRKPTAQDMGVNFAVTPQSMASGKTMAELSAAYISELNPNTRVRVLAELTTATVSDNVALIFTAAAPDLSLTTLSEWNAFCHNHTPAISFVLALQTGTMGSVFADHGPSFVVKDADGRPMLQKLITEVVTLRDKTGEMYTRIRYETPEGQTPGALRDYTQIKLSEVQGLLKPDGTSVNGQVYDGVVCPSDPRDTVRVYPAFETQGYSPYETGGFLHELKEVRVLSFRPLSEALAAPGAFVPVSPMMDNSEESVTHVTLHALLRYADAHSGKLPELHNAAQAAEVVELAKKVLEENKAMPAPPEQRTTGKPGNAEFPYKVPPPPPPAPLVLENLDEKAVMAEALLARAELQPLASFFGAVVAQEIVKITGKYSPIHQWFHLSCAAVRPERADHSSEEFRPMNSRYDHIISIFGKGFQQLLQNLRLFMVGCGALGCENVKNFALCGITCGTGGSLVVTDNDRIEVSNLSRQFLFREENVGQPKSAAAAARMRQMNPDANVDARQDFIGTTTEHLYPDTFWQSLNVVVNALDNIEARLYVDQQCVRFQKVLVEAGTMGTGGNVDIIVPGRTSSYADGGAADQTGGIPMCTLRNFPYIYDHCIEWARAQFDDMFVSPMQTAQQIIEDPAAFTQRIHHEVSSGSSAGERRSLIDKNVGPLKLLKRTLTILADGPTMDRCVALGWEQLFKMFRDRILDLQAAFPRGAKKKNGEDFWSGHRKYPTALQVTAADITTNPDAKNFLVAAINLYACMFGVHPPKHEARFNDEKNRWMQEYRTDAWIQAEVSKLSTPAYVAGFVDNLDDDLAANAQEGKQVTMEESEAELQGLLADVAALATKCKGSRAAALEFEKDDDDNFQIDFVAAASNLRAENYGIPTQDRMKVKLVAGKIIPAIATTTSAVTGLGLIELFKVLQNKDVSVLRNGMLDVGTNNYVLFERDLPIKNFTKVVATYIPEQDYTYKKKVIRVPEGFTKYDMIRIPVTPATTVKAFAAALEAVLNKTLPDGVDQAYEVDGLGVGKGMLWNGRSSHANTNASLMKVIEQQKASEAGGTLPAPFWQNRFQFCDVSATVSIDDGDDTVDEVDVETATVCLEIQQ
Assay type: functional
Molecule `Cc1ccc(-c2nnc(CN3CCc4nn(C)c(=O)cc4C3)o2)cc1` has an IC50 of over 100 µM.
In the case of `Cc1ccc(-c2nc(CN3CCc4nn(C)c(=O)cc4C3)no2)cc1`, the IC50 is reported as over 100 µM.
`COCc1nc2cc(NCc3ccc(CO)o3)ccc2o1` showed an IC50 of over 100 µM.
For `CCCN(C(=O)c1cnccn1)c1nc2c(s1)CCc1c-2cnn1C`, the IC50 was over 100 µM.
Work on `Cn1nc2c(cc1=O)CN(Cc1nnc(-c3ccco3)o1)CC2` yielded an IC50 of over 100 µM.
`NC(=O)c1ccc(CNC(=O)Nc2cn[nH]c2)cc1` was tested, and the IC50 was over 100 µM.
Work on `Cn1nc2c(cc1=O)CN(Cc1nnc(-c3ccc(F)cc3)o1)CC2` yielded an IC50 of over 100 µM.
`CC(C)N1CCC(Cc2cc(-c3cccc(C(=O)O)c3)ncn2)CC1` was tested, and the IC50 was over 100 µM.
For `COCCN(C(=O)c1cnccn1)c1nc2c(s1)CCc1c-2cnn1C`, the IC50 was over 100 µM.
Molecule `CC(C)C(NC(=O)NCCNc1ccccn1)c1cccs1` (configuration not stated) has an IC50 of over 100 µM.
In the case of `CN(C(=O)c1ccccn1)c1nc2c(s1)CCc1c-2cnn1C`, the IC50 is reported as over 100 µM.
For `O=C(Cc1cccs1)N1C[C@@H]2COC[C@]2(COCc2cccnc2)C1`, the IC50 was over 100 µM.
For `Cn1ccnc1CN1CCCN(C(=O)COCC2CC2)CC1`, the IC50 was over 100 µM.
For `Cc1ncc(C(=O)NCCNc2ncccc2C#N)s1`, the IC50 was over 100 µM.
`CC(C)c1nc2n(n1)CC(NCc1ncc(C(C)(C)C)o1)CC2` (configuration not stated) showed an IC50 of over 100 µM.
Work on `CCCn1nc2c(cc1=O)CN(Cc1nnc(C3CC3)o1)CC2` yielded an IC50 of over 100 µM.
Work on `Cc1nc(C)n(CC2CCCN(Cc3ncc(C(C)(C)C)o3)C2)n1` (configuration not stated) yielded an IC50 of over 100 µM.
With `COCc1nc2cc(NCc3cc[nH]n3)ccc2o1` the IC50 was over 100 µM.
`O=C(c1ccccc1F)N1C[C@@H]2COC[C@]2(COCc2cccnc2)C1` was tested, and the IC50 was over 100 µM.
With `Cc1nc(C)n(CC2CCCCN2Cc2nnc(C3CC3)o2)n1` (configuration not stated) the IC50 was over 100 µM.
Work on `CC[C@@H]1N(C)CCC[C@]12CCC(=O)N2Cc1ccncc1` yielded an IC50 of over 100 µM.
`COCc1nc2cc(NCc3scnc3C)ccc2o1` was tested, and the IC50 was over 100 µM.
Molecule `O=C(CCS(=O)(=O)C1CCCC1)NCc1ccccc1Cn1cncn1` has an IC50 of over 100 µM.
`COc1ccc(CNCc2ccnc(N3CCOCC3)c2)cc1OC` was tested, and the IC50 was over 100 µM.
In the case of `CC(C)N1CCC(Cc2cncc(-c3cccc(C(=O)O)c3)n2)C1` (configuration not stated), the IC50 is reported as over 100 µM.
`CC(C)(C)c1cnc(CN2CCC[C@H]2CO)o1` gave an IC50 of over 100 µM.
Molecule `Cc1ncsc1C(=O)NCCNc1ncccc1C#N` has an IC50 of over 100 µM.
In the case of `CC(Cn1cccn1)NCc1nc(-c2cccc(Cl)c2)no1` (configuration not stated), the IC50 is reported as over 100 µM.
Molecule `CC(C)C(NC(=O)Nc1ccccn1)c1cccs1` (configuration not stated) has an IC50 of over 100 µM.
`CC(NC(=O)NCCNc1ncccn1)c1cccs1` (configuration not stated) was tested, and the IC50 was over 100 µM.
Work on `CC(OCC1CC1)C(=O)N1CCCN(Cc2nccn2C(C)C)CC1` (configuration not stated) yielded an IC50 of over 100 µM.
For `O=C(CCC1CCCO1)NCc1ccccc1Cn1cncn1` (configuration not stated), the IC50 was over 100 µM.
With `CC(OCC1CC1)C(=O)N1CCCN(Cc2cnn(C)c2)CC1` (configuration not stated) the IC50 was over 100 µM.
For `CC(C)c1nc2n(n1)CC(NCc1nnc(C3CC3)o1)CC2` (configuration not stated), the IC50 was over 100 µM.
Molecule `COc1cc(CNCc2ccnc(N3CCCCC3)c2)cc(OC)c1` has an IC50 of over 100 µM.
`CS(=O)(=O)c1ccc(CNC(=O)Nc2cn[nH]c2)cc1` was tested, and the IC50 was over 100 µM.
`Cc1cc(C(=O)N2C[C@@H]3COC[C@]3(COCc3cccnc3)C2)no1` was tested, and the IC50 was over 100 µM.
Work on `CC(Oc1ccccc1)C(=O)N1CCCN(Cc2nccn2C)CC1` (configuration not stated) yielded an IC50 of over 100 µM.
With `CNS(=O)(=O)Cc1cccc(CNC(=O)Nc2cn[nH]c2)c1` the IC50 was over 100 µM.
Molecule `CC(C)n1nc2c(cc1=O)CN(Cc1nnc(C3CC3)o1)CC2` has an IC50 of over 100 µM.
With `CCOCC(O)CN1CCN(C(=O)c2ccc(N(C)C)nn2)CC1` (configuration not stated) the IC50 was over 100 µM.
Work on `CC(Cn1cccn1)NCc1nc(-c2ccccn2)no1` (configuration not stated) yielded an IC50 of over 100 µM.
For `Cc1ccoc1C(=O)N1C[C@@H]2COC[C@]2(COCc2cccnc2)C1`, the IC50 was over 100 µM.
With `Cn1nc2c(cc1=O)CN(Cc1coc(-c3ccc(F)cc3)n1)CC2` the IC50 was over 100 µM.

Reference: ChEMBL document CHEMBL3988442, “University of Dundee, Small-Polar-MMV Screening Library” (2021)
